According to patent US6537980B1, “Vitamin D analogues and their pharmaceutical use” (Leo Pharmaceutical Products Ltd., priority 1999, dated 2003):
“Also recorded” adds a separate entry of the source.

How the values were obtained:
[1] = system: hairless guinea pigs; test: Skin irritation, occlusive patch test in hairless guinea pigs; assay type: in vivo, guinea pig; set-up: key to Skin irritation score: 0: Substances of no irritation; +: Substances of doubtful or very low irritancy compared to calcitriol; ++: Substances of low irritancy compared to calcitriol; +++: Substances with irritances in the same range as calcitriol; ++++: Substances of more irritancy than calcitriol; +++++: Very irritative substances compared to calcftriol; conditions: for Skin irritation score: occlusive patch 48 hours, 500, 50 and 5 μg/ml, clinical grading, LDPI, erythema
Procedure: Skin irritation was assessed in hairless guinea pigs. Randomised occlusive patch testing for 48 hours was used. Each analogue was tested at three dose levels (500 μg/ml, 50 μg/ml, and 5 μg/ml) and a placebo solution was also included. Assessment of skin irritation was blinded and based upon clinical grading and objective measurement of cutaneous blood flow (laser Doppler perfusion imaging, LDPI) and erythema (Minolta ChromaMeter). Furthermore, epidermal thickness as an indication of epidermal hyperplasia was measured.
The irritancy scores were as defined below:
0 Substances of no irritation
+ Substances of doubtful or very low irritancy compared to calcitriol
++ Substances of low irritancy compared to calcitriol
+++ Substances with irritances in the same range as calcitriol
++++ Substances of more irritancy than calcitriol
+++++ Very irritative substances compared to calcftriol

[2] = system: HaCaT human skin keratinocyte cell line; test: HaCaT antiproliferative assay measuring 3H-thymidine uptake; assay type: cell-based; conditions: for HaCaT rel.: relative to 1,25(OH)2D3, ratio IC50 of 1,25(OH)2D3 / IC50 of compound, 3H-thymidine incorporation, >1 = more active
Text: An assay for the rating of test compounds for antiproliterative activity in skin cells, e.g. antipsoriatic effect, is the in vitro assay using HaCaT, a spontaneously immortalised, non-tumorigenic human skin keratinocyte cell line (Mørk Hansen, C. et al., J. Invest. Dermatol 1, 44-48 (1996)), measuring ^3H -thymidine uptake.

[3] = system: rats; test: Calcemic activity in rats in vivo; set-up: species or system rat; conditions: for Calc. rel.: calcemic activity in rats relative to 1,25(OH)2D3, >1 = more active
Text: Generally, the classical effects of 1,25(OH)2D3 on the calcium balance in the organism, including calcemic and calciuric activities, are unwanted in the vitamin D analogues of the present invention, in which selectivity for e.g. inhibition of the proliferation of certain cells, absence of calcemic effects and skin irritation is desired.

[4] = target: T1, vitamin D receptor (Homo sapiens, UniProt P11473); test: Binding to the vitamin D receptor in vitro, relative to Calcitriol; conditions: relative to 1,25(OH)2D3; ratio IC50 of 1,25(OH)2D3 / IC50 of compound; >1 = more active
T1 sequence (P11473 1-427): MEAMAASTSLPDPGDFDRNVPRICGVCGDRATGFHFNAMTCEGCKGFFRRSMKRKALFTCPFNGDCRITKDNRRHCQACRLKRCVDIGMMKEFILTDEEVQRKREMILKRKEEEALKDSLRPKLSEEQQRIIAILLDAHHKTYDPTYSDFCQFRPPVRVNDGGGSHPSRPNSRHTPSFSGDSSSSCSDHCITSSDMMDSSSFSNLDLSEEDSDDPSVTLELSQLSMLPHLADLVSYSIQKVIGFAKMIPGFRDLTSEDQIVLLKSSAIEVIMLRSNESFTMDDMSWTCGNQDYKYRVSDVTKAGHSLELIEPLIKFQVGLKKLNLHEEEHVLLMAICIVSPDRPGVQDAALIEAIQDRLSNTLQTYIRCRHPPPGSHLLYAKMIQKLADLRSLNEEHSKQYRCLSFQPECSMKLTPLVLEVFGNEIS

Calc. rel. [3]	Receptor binding rel. [4]	Compound	skin irritation (in words) ([1]; compared with prior art compounds)	Skin irritation score [1]	antiproliferative activity in skin cells (in words) ([2]; HaCaT, compared with Calcitriol / 1,25(OH)2D3)	HaCaT rel. [2]	calcemic activity (in words) ([3]; rats in vivo, compared with prior art compounds)
0.001	0.01	C=C1C(=CC=C2CCCC3(C)C2CCC3C(C)COCc2cccc(C(C)(C)O)c2)CC(O)CC1O [Compound 100, 1(S),3(R)-Dihydroxy-20(R)-[((3-(2-hydroxy-2-propyl)-phenyl)-methoxy)-methyl]-9,10-seco-pregna-5(Z),7(E),10(19)-triene]	considerably less skin irritation than compounds of the prior art	+	same potency as the compound Calcitriol	1	very low calcemic activity; also recorded: negligible
0.005		C=C1/C(=C\C=C2/CCC[C@]3(C)[C@@H]([C@H](C)/C=C/[C@@H](O)C4CC4)CC[C@@H]23)C[C@@H](O)C[C@@H]1O [Calcipotriol, reference compound]		+++		2	
1		C=C1/C(=C\C=C2/CCC[C@]3(C)[C@@H]([C@H](C)CCCC(C)(C)O)CC[C@@H]23)C[C@@H](O)C[C@@H]1O [Calcitriol, 1α,25-dihydroxy-vitamin D3, reference compound]		+++		1	
